Patent publication US9458089B2, “Phenoxy alkyl diethanolamine and diisopropanolamine compounds for delivering active agents” (EMISPHERE TECHNOLOGIES, INC., priority 2012, dated 2016)
Counter-ions that a name gives are not always drawn.

Target: T1, hERG channels (Homo sapiens, UniProt Q12809)
T1 construct: expressed in transfected cells
T1 sequence (Q12809 whole entry): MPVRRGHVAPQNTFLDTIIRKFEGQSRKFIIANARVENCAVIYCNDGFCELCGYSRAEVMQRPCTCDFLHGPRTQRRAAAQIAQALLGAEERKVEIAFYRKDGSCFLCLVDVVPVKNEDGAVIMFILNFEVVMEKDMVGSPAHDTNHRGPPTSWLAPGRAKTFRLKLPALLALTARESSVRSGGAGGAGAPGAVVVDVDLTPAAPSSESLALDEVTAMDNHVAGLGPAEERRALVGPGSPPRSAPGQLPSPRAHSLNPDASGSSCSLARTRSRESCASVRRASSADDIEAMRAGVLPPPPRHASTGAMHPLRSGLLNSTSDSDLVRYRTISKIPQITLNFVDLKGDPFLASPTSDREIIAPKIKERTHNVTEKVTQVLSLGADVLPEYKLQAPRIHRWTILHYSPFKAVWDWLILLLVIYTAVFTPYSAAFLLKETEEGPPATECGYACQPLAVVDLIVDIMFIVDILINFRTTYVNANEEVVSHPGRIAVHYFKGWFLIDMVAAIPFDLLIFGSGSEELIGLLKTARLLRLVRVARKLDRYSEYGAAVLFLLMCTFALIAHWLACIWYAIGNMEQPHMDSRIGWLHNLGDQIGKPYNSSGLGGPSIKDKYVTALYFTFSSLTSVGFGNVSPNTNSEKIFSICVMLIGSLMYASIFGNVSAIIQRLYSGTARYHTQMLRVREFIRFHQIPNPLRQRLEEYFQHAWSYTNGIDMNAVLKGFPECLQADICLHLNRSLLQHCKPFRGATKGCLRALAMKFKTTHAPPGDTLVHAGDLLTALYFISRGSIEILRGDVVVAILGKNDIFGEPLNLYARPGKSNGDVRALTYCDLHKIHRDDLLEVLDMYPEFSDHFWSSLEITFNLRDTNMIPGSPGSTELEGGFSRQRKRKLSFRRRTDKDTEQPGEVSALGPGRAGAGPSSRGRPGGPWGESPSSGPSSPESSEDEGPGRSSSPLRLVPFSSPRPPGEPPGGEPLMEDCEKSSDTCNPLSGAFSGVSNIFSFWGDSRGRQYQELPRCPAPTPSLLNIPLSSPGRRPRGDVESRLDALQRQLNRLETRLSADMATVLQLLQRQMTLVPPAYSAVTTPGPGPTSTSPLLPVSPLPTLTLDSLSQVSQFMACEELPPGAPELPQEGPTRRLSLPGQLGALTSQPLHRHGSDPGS
Test: hERG patch clamp on clone hERG channels in mammalian cells
Type: cell-based
Settings: test article 1 μm, cisapride positive control, read-out: Experimental hERG Activity
Experimental: hERG activity was measured using a patch clamp method on clone hERG channels in mammalian cells. The concentration of test articles was 1 μm and a comparison was made to both a positive (cisapride) and negative (vehicle) control.
`Cc1ccc(C)c(OCCCCCCN(CCO)CCO)c1` showed an IC50 of under 2000 nM. In the case of `Cc1ccc(C)c(OCCCCCCCN2CCOCC2)c1`, the IC50 is reported as under 2000 nM. For `Cc1ccc(C)c(OCCCCCCCN(CCO)CCO)c1`, the IC50 was under 2000 nM. With `OCCN(CCO)CCCCCCCCOc1ccccc1O` the IC50 was 2000 to 5000 nM.

Test system: not given
Test: not given
Settings: not given
For `Cc1ccc(F)c(OCCCCN(CCO)CCO)c1` (as salt: hydrochloride) [Compound 2-FPBD, 4-(2-fluoro-5-methylphenoxy)butyldiethanolamine], the melting point was 83 to 86 °C. With `OCCN(CCO)CCCCCCOc1ccccc1O` (as salt: hydrochloride) [Compound 2-HPHD, 6-(2-hydroxyphenoxyl)hexyldiethanolamine] the melting point was 95 to 97 °C.
